Experiments:
NET = molecular target: T1, NET (Rattus norvegicus, UniProt Q63380); assay: Ex vivo NET occupancy in rat spinal cord with PK/PD modeling; settings: estimate (% CV)
T1 construct: from tissue; host or cells: rat lumbar spinal cord after oral dosing
Experimental: TD-9855 Rat Administration and Sampling — Rats (n = 6/timepoint/dose level) received a single oral dose of TD-9855 (0.3, 1, 5, 10, 30, and 60mg/kg) and were euthanized by decapitation at specified time points (0.5, 2, 4, 6, and 8hr for 5mg/kg dose level; 2hr for 0.3, 1, 10, 30, and 60mg/kg dose levels) post-administration. Spinal cords were dissected for ex vivo transporter occupancy and PK assessments from the same animals. The spinal cord was harvested by hydraulic extrusion using phosphate-buffered saline, and the lumbar segment dissected and frozen on dry ice. The remaining spinal cord segments were collected and homogenized in water (25% w/w) for PK analysis. All samples were stored at -80 °C until analysis.
A kinetic radioligand binding assay was used to determine NET and SERT occupancy in rat spinal cord, as described previously ([Bourdet et al., 2012]).
Rat PK/PD Modeling — PK/PD parameters were estimated by a compartmental modeling approach (WinNonlin Version 5.0.1, Pharsight Corporation). One- and two-compartment PK models with first-order absorption and elimination were evaluated. The one-compartment model was selected. The pharmacodynamic model was an effect compartment Emax model linked directly to the central PK compartment (WinNonlin PK Model 3, PD Model 101). Selection of models was based upon best fit in terms of visual inspection, Akaike Information Criteria, and weighted residual sum of squares using the Gauss-Newton minimization method. The following parameters were estimated:
Emax (% occupancy): Maximal SERT or NET occupancy in spinal cord
keo (hr^-1): First-order equilibration rate constant between the central pharmacokinetic compartment and the pharmacodynamic effect compartment

SERT = SERT (Homo sapiens, UniProt P31645); assay: [3H]-citalopram equilibrium binding, HEK293-hSERT membranes; parameters: expressed in transfected cells; host or cells: HEK293 (HEK293-hSERT), stably transfected; settings: mean (95% CI), 3 to 9 experiments, read-out: Transporter Binding: pKi SERT (converted)
Source text: The in vitro pharmacology of TD-9855 (4-[2-(2, 4, 6-trifluorophenoxymethyl)phenyl]piperidine; Figure 1) at human recombinant and rat native monoamine transporters was characterized as described previously ([Tsuruda et al., 2010]; [Shen et al., 2013]). Radioligands were sourced commercially (Perkin Elmer Life Sciences or GE Healthcare Life Sciences). Briefly, membranes prepared from HEK293 (Human Embryonic Kidney 293) cells stably-transfected with human recombinant SERT (HEK293-hSERT), NET (HEK293-hNET), or DAT ([…]) were incubated for 1hr at 22°C in the absence, or presence, of TD-9855 and [^3H]-citalopram (1.0nM) for SERT, [^3H]-nisoxetine (2.0nM) for NET, and [^3H]-WIN35428 (3.0nM) for DAT in 50mM Tris-HCl, 120mM NaCl, 5mM KCl, 0.025% BSA, 100 μM ascorbic acid, pH 7.4. Rat cortical membrane preparations were incubated with [^3H]-citalopram (2.0nM) for SERT or [^3H]-nisoxetine (4.0nM) for NET for 1hr at 22°C. […] Binding and uptake assays were terminated by rapid filtration and radioactivity, determined by liquid scintillation spectroscopy.

T1 sequence (Q63380 1-617): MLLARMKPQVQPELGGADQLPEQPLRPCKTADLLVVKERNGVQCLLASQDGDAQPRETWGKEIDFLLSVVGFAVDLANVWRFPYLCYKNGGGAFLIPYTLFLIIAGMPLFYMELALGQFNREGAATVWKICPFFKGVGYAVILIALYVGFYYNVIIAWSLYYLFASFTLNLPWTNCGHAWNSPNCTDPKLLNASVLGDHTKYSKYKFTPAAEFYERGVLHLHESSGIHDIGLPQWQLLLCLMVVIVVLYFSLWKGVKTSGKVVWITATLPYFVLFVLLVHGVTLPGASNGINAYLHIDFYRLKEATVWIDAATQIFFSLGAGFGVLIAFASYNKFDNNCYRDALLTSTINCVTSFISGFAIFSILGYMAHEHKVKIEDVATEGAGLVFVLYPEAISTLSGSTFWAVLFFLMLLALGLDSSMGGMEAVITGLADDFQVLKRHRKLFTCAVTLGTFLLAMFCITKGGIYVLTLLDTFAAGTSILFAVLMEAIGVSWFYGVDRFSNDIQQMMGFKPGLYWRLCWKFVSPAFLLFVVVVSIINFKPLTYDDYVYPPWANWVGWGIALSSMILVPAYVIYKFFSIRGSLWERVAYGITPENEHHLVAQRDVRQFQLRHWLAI
Sequence of SERT (P31645 whole entry): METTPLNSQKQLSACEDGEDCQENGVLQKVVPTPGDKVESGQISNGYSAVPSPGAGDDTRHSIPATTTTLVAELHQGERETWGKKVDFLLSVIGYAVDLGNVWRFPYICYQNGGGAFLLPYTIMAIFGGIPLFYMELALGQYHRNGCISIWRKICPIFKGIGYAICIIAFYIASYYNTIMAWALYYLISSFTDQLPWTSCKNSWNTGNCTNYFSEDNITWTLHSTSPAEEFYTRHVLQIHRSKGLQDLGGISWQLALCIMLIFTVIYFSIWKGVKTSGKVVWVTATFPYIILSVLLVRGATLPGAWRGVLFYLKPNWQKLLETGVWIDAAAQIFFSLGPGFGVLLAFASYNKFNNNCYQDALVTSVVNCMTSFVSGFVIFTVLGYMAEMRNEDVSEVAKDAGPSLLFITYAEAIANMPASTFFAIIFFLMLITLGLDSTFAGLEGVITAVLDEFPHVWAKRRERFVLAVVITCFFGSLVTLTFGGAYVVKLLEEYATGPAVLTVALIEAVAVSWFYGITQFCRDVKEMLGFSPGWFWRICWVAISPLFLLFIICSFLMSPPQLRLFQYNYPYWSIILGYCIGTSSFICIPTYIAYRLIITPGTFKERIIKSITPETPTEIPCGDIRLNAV

Which results are given for Fc1cc(F)c(OCc2ccccc2C2CCNCC2)c(F)c1 [TD-9855, 4-[2-(2,4,6-trifluorophenoxymethyl)phenyl]piperidine]?
Emax (% Occupancy), NET (NET; rat spinal cord, oral 0.3-60mg/kg): 92.0 (19) % Occupancy; EC50 (NET; rat spinal cord, plasma EC50): 36.4 nM; keo, NET (NET; rat, equilibration rate constant plasma to effect compartment): 1.78 (57) hr^-1; Ki (SERT): 3.16 nM
